One experiment has as its target T1, TPα (Homo sapiens, UniProt P21731).
T1 construct: expressed in transfected cells
T1 sequence (P21731 1-343): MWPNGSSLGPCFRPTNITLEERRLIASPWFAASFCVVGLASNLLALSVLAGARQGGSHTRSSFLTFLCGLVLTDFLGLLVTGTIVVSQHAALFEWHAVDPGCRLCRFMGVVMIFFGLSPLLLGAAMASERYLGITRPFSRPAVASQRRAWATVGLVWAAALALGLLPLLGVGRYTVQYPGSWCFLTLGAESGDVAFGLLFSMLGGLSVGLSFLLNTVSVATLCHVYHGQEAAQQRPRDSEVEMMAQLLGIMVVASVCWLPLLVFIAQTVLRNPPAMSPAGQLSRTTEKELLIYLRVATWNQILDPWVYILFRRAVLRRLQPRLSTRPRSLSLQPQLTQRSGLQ
The experiment is described as follows: U46619-induced [Ca2+]i mobilization in HEK.TPα cells. Format: cell-based. As to conditions: for remaining activity at 1 µM: antagonist 1 μM, read-out: Percentage of Control, TPα, 1 μM; for remaining activity at 1 µM / remaining activity at 10 µM: % of agonist-induced response in vehicle-treated cells; for remaining activity at 10 µM: antagonist 10 μM, read-out: Percentage of Control, TPα, 10 μM. The method in brief: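 HEK293 cells loaded with 3 μM Fluo-4 (1 h, 25° C.) in Krebs-HEPES pH 7.4, then pre-incubated with compound for 10 min. Fluorescence at 520 nm tracked after injection of 1 μM U46619. Signal calibrated by Fmax (2% Triton X100) and Fmin (1 mM EGTA).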

Another experiment has as its system platelets in whole blood. The experiment is described as follows: U46619-mediated platelet aggregation in whole blood (Sysmex haematological analyzer). Format: cell-based, human. As to conditions: antagonist 0.1 μM, 1 μM U46619. The protocol:
From an efficacy point of view, this is an important assay and, physiologically, relevant with respect to the therapeutic target.
Initially, the Sysmex haematological analyzer was used to examine the effect of the TP antagonists at a single concentration (0.1 μM) on U46619 (1 μM)-mediated platelet aggregation in whole blood.
FIG. 3 illustrates effects of the TP antagonist compounds on U46619-mediated platelet aggregation. Blood was taken form healthy volunteer by venupuncture into syringes containing 3.8% sodium citrate, 10 μM Indomethacin, such that the ratio of anticoagulant:blood was 1:9. The blood was aliquoted and incubated for 10 min with TP20 and selected NTP compounds, as indicated, where the antagonist were used at 0.1 μM prior to stimulation with 1 μM U46619 for 3 min. The blood was fixed with formaldehyde and platelet numbers counted using the Sysmex haematological analyzer. Data is presented as the mean percentage of control or non-treated blood sample (Percentage of Control; %) and represent data from 3 independent experiments were samples were treated in duplicate.

The target in another experiment is T2, TPβ (Homo sapiens, UniProt P21731).
T2 construct: expressed in transfected cells
T2 sequence (P21731 1-407 isoform P21731-2): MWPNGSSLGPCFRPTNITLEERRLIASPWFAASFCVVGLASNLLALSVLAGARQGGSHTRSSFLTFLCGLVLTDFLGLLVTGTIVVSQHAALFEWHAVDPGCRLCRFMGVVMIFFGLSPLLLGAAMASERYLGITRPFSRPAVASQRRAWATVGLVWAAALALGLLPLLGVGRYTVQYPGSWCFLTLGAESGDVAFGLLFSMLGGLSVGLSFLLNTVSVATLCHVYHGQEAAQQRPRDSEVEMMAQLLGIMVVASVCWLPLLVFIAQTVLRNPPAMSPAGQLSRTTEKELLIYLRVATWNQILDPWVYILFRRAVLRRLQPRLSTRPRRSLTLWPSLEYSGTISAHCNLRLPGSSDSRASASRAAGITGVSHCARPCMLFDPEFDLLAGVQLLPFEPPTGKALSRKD
The experiment is described as follows: U46619-induced [Ca2+]i mobilization in HEK.TPβ cells. Format: cell-based. The conditions noted are these: for remaining activity at 1 µM / remaining activity at 10 µM: % of agonist-induced response in vehicle-treated cells; for remaining activity at 1 µM: read-out: Percentage of Control, TPβ, 1 μM; for remaining activity at 10 µM: antagonist 10 μM, read-out: Percentage of Control, TPβ, 10 μM. An outline of the steps:
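Fluo-4-loaded (3 μM, 1 h, 25° C.) HEK293 TPβ cells in KREBs-HEPES pH 7.4, pre-incubated 10 min with test compound, then stimulated with 1 μM U46619. Fluorescence at 520 nm followed for 75 s, calibrated by Fmax (2% Triton X100) and Fmin (1 mM EGTA).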

Setting [1] is: side-by-side comparison, n=5, Table 2.6, read-out: IC50 values for inhibition of U46619-mediated [Ca2+]i, TPα.
[2] abbreviates: side-by-side comparison, n=6, Table 2.6, read-out: IC50 values for inhibition of U46619-mediated [Ca2+]i, TPβ.

Structures are written as SMILES. Read-outs that look alike come from different tables or passages of the source.

The values below come from patent US9718781B2, “Methods and compounds for treating proliferative disorders and viral infections” (University College Dublin, National University of Ireland, …, priority 2012, dated 2017).

As to `COc1ccc(-c2cccc(Oc3ccc(C#N)cc3S(=O)(=O)NC(=O)NC(C)(C)C)c2)cc1` [NTP4, N-(tert-butylcarbamoyl)-5-cyano-2-((4′-methoxy-[1,1′-biphenyl]-3-yl)oxy)benzenesulfonamide], the remaining activity at 1 µM came out at 46.1 ± 3.87% at TPα (1 μM U46619) and 22.5 ± 3.7% on TPβ (antagonist 1 μM, 1 μM U46619). The remaining activity at 10 µM at TPα (1 μM U46619) is 19.9 ± 2.13%; at TPβ (1 μM U46619), 10.2 ± 0.95%. Further, the figures for the IC50 at TPα (setting [1]) and at TPβ (setting [2]) were 593 ± 83.6 nM and 60.4 ± 8 nM, respectively. Moreover, in the experiment on platelets in whole blood, the “inhibition of U46619-mediated reduction in platelet number” value is listed as “approx. 50%”. Besides, on TPβ (antagonist 1 μM, 1 μM U46619), the “activity class in HEK.TPβ cells” value is given as “ACTIVE”. Further, the “inhibition of U46619-mediated responses” value at TPβ (used at 0.5, HEK.TPβ cells) is “greater than 50%”.

With `COc1ccc(-c2cccc(Oc3ccc([N+](=O)[O-])cc3S(=O)(=O)NC(=O)NC(C)(C)C)c2)cc1` [TP20, N-(tert-butylcarbamoyl)-2-((4′-methoxy-[1,1′-biphenyl]-3-yl)oxy)-5-nitrobenzene-sulfonamide], the concentration for half-maximal inhibition (IC50) – broadly, the midpoint of a concentration-inhibition curve – at TPα (HEK.TPα cells, 1 μM U46619, Table 2, read-out: IC50 data for U46619-mediated [Ca2+]i mobilization, TPα) is 119 nM; on TPα (setting [1]), 240 ± 29.8 nM; at TPβ (HEK.TPβ cells, 1 μM U46619, Table 2, read-out: IC50 data for U46619-mediated [Ca2+]i mobilization, TPβ), 7.33 nM; on TPβ (setting [2]), 9.61 ± 1.46 nM. Also, the “TPα:TPβ Selectivity Ratio” value on TPα (IC50 TPα/IC50 TPβ) stood at 16.2. The remaining activity at 1 µM is 45.4 ± 4.07% on TPα (1 μM U46619) and 12.6 ± 1.46% at TPβ (antagonist 1 μM, 1 μM U46619). For the same molecule, the results for the remaining activity at 10 µM at TPα (1 μM U46619) and on TPβ (1 μM U46619) were 17.1 ± 2.46% and 9.96 ± 1.7%, respectively. Further, the “inhibition of U46619-mediated reduction in platelet number” value with platelets in whole blood is “almost completely inhibited”. Further, the “reduction of U46619-mediated calcium mobilization responses” value at TPβ (1 & 10 μM, HEK.TPβ cells) is given as “approx. 90%”.
